# Experimental data as given in US20130165508A1, “METHODS AND FORMULATIONS FOR TREATING INEFFECTIVE OR DECREASED ESOPHAGAL MOTILITY” (priority 2007, published 2013).
# Tests used:
# [1] = cited from earlier work
# [2] = Gastrointestinal absorption of oral bethanechol; type: in vivo; conditions: 50 mg oral dosage at about 22 percent absorption
# Method: Thus, to achieve the beneficial effects of bethanechol on esophageal motility, systemic dosages in the range of 25-50 mg are required. Further, absorption of bethanechol at these dosage levels by the stomach and lower GI tract results in systemic distribution to other areas of the body such as the urinary tract and colon. A 50 mg oral dosage, for example, is believed to be about 22 percent absorbed in the stomach and intestines, which are rich in blood supply. This would result in a systemic level of about 11 mg of bethanechol. As described herein, however, bethanechol delivered locally to the pharynx and esophagus in a form that can more easily be absorbed by the mucosal lining of the pharynx and esophagus and delivered to the muscarinic receptors, principally the M2 receptors, can provide esophageal motility benefits, as well as increased salivation, while minimizing or avoiding systemic absorption and reducing or eliminating undesirable side effects. Enhancing the reduction or elimination of undesirable side effects is the fact that the esophagus has low vascularization, thus inhibiting the systemic absorption of bethanechol.
# [3] = cited from earlier work; remark: listed apart in the source
# [4] = Expected absorption of bethanechol from ten 0.1 ml sprays with absorption enhancer; type: in vivo
# Text: An exemplary method comprises treating ineffective esophageal motility while reducing or virtually eliminating an undesirable side effect, particularly a parasympathetic nervous system side effect, in a mammal in need of treatment by topically administering to the pharynx and esophagus of the mammal a therapeutically effective amount of bethanechol and an absorption enhancer to facilitate esophageal peristalsis so that the undesirable side effect, particularly the parasympathetic nervous system side effect, is reduced while maintaining the therapeutic esophageal peristaltic effect. A further exemplary method comprises delivering an amount of bethanechol of between about 3 mg and about 15 mg. A further exemplary method comprises introducing about ten 0.1 ml sprays comprising 5 mg bethanechol per ml and an absorption enhancer. Of the total 5 mg introduced, it is expected about 25 percent of the bethanechol, or about 1.25 mg, is adsorbed. The remaining 3.75 mg would proceed into the stomach and intestines, and, at about a 22 percent absorption rate would result in only about 0.8 mg bethanechol being systemically adsorbed, far below the threshold necessary to produce undesirable side effects.
# [5] = systemic dosing; cited from earlier work
# acetylcholinesterase = acetylcholinesterase (Homo sapiens, UniProt P22303); conditions: cited from earlier work
# Chain of acetylcholinesterase (P22303 32-614, species assumed): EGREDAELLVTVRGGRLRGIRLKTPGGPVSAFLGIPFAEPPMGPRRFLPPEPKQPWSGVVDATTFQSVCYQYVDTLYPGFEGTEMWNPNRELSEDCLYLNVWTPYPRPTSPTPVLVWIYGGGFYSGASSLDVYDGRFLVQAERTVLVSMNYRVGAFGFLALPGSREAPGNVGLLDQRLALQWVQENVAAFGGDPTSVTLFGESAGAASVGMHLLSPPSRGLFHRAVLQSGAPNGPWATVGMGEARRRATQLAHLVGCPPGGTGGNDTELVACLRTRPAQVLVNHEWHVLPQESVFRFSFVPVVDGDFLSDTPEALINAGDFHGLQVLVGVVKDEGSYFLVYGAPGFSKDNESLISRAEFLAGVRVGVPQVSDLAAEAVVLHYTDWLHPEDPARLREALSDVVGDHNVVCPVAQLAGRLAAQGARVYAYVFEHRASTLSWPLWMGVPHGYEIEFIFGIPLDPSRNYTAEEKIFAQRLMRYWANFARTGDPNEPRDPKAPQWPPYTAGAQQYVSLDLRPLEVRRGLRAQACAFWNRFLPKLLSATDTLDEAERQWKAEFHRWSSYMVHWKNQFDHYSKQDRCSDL
# [6] = tested on: patients with severe ineffective esophageal motility; conditions: 50 mg oral doses, after 15 and 40 minutes; cited from earlier work
# muscarinic M2 receptors = target: T1, muscarinic M2 receptors (Homo sapiens, UniProt P08172); conditions: cited from earlier work
# T1 sequence (P08172 1-466): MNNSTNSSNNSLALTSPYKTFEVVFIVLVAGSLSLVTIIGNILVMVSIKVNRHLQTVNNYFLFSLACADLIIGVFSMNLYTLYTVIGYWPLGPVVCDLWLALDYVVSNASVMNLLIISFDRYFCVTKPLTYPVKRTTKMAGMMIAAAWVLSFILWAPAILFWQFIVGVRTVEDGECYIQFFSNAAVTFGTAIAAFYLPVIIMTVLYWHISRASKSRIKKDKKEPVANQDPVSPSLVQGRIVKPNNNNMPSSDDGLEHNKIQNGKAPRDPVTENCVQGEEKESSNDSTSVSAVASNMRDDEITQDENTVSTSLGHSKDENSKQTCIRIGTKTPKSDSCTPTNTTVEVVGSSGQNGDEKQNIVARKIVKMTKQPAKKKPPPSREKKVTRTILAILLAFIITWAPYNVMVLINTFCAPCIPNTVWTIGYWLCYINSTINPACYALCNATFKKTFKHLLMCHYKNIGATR
compound,measurement,setting,value
"CC(C[N+](C)(C)C)OC(N)=O (centres unmarked) [bethanechol, 2-carbamoyloxpropyl-trimethyl-ammonium chloride]",stability and water solubility,[1],"stable, water-soluble"
same,systemic level of bethanechol,[2],about 11 mg
same,fraction absorbed in the stomach and intestines,"[3]; 50 mg oral dosage, ""is believed""",about 22%
same,absorption by the mucosal lining of the gastrointestinal tract,[3]; in vivo,poorly absorbed
same,bethanechol systemically adsorbed from the remaining 3.75 mg,[4]; remaining 3.75 mg in stomach and intestines at about 22 percent absorption rate,about 0.8 mg
same,fraction of bethanechol adsorbed from the spray,"[4]; ten 0.1 ml sprays, 5 mg bethanechol per ml with absorption enhancer, total 5 mg",about 25%
same,amount of bethanechol adsorbed from the spray,"[4]; ten 0.1 ml sprays, total 5 mg",about 1.25 mg
same,undesirable side effects when provided systemically,[5],"diarrhea, flushing, increased sweating, nausea, stomach pain, or gas, and, importantly, urinary urgency"
same,inactivation by acetylcholinesterase,acetylcholinesterase,not inactivated by acetylcholinesterase
same,effect on esophageal motility,[6],improve esophageal motility
same,receptor selectivity,muscarinic M2 receptors,directly and selectively on the muscarinic M2 receptors
